Data from the supplement of paper PMC9663587.

How the values were obtained:
Test in all cases: increase in dead-cell fraction, 72 h; higher = more death;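 also: breast cancer cell lines in 384-well plates, stained with Hoechst plus LIVE/DEAD far red dye and imaged, cells above an LDR intensity threshold counted dead, Hoechst-negative corpses included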
Neratinib/HKI272 = compound: CCOc1cc2ncc(C#N)c(Nc3ccc(OCc4ccccn4)c(Cl)c3)c2cc1NC(=O)/C=C/CN(C)C [Neratinib/HKI272]
[1] = compound: CCc1cnn2c(NCc3ccc[n+]([O-])c3)cc(N3CCCC[C@H]3CCO)nc12
LEE011/Ribociclib = compound: CN(C)C(=O)c1cc2cnc(Nc3ccc(N4CCNCC4)cn3)nc2n1C1CCCC1 [LEE011/Ribociclib]
THZ531 = compound: CN(C)C/C=C/C(=O)Nc1ccc(C(=O)N2CCC[C@@H](Nc3ncc(Cl)c(-c4c[nH]c5ccccc45)n3)C2)cc1 [THZ531]
THZ1 = compound: CN(C)C/C=C/C(=O)Nc1ccc(C(=O)Nc2cccc(Nc3ncc(Cl)c(-c4c[nH]c5ccccc45)n3)c2)cc1 [THZ1]
Flavopiridol = compound: CN1CC[C@H](c2c(O)cc(O)c3c(=O)cc(-c4ccccc4Cl)oc23)[C@H](O)C1 [Flavopiridol]

Cell Line: SUM52PE
- increase in dead-cell fraction (Neratinib/HKI272; 0.3162 µM): 0.0005
- increase in dead-cell fraction (Neratinib/HKI272; 1 µM): 0.0053
- increase in dead-cell fraction (Neratinib/HKI272; 3.162 µM): 0.0166
- increase in dead-cell fraction ([1]; 0.0001 µM): 0.0037
- increase in dead-cell fraction ([1]; 0.0003162 µM): 0.0003
- increase in dead-cell fraction ([1]; 0.001 µM): 0.0018
- increase in dead-cell fraction ([1]; 0.003162 µM): 0.0012
- increase in dead-cell fraction ([1]; 0.01 µM): 0.006
- increase in dead-cell fraction ([1]; 0.03162 µM): 0.101
- increase in dead-cell fraction ([1]; 0.1 µM): 0.333
- increase in dead-cell fraction ([1]; 0.3162 µM): 0.419
- increase in dead-cell fraction ([1]; 1 µM): 0.155
- increase in dead-cell fraction (LEE011/Ribociclib; 0.001 µM): 0.0005
- increase in dead-cell fraction (LEE011/Ribociclib; 0.003162 µM): 0.0031
- increase in dead-cell fraction (LEE011/Ribociclib; 0.01 µM): -0.0001
- increase in dead-cell fraction (LEE011/Ribociclib; 0.03162 µM): 0.0002
- increase in dead-cell fraction (LEE011/Ribociclib; 0.1 µM): -0.0001
- increase in dead-cell fraction (LEE011/Ribociclib; 0.3162 µM): 0.0042
- increase in dead-cell fraction (LEE011/Ribociclib; 1 µM): 0.0047
- increase in dead-cell fraction (LEE011/Ribociclib; 3.162 µM): 0.0047
- increase in dead-cell fraction (LEE011/Ribociclib; 10 µM): 0.0071
- increase in dead-cell fraction (THZ531; 0.0001 µM): -0.0007
- increase in dead-cell fraction (THZ531; 0.0003162 µM): 0.0017
- increase in dead-cell fraction (THZ531; 0.001 µM): -0.0005
- increase in dead-cell fraction (THZ531; 0.003162 µM): -0.0003
- increase in dead-cell fraction (THZ531; 0.01 µM): -0.0005
- increase in dead-cell fraction (THZ531; 0.03162 µM): 0.0015
- increase in dead-cell fraction (THZ531; 0.1 µM): 0.0054
- increase in dead-cell fraction (THZ531; 0.3162 µM): 0.0857
- increase in dead-cell fraction (THZ531; 1 µM): 0.311
- increase in dead-cell fraction (THZ1; 0.0001 µM): 0.0004
- increase in dead-cell fraction (THZ1; 0.0003162 µM): 0.0008
- increase in dead-cell fraction (THZ1; 0.001 µM): 0.0052
- increase in dead-cell fraction (THZ1; 0.003162 µM): 0.0023
- increase in dead-cell fraction (THZ1; 0.01 µM): 0.002
- increase in dead-cell fraction (THZ1; 0.03162 µM): 0.061
- increase in dead-cell fraction (THZ1; 0.1 µM): 0.093
- increase in dead-cell fraction (THZ1; 0.3162 µM): 0.137
- increase in dead-cell fraction (THZ1; 1 µM): 0.513
- increase in dead-cell fraction (Flavopiridol; 0.0001 µM): 0.0019
- increase in dead-cell fraction (Flavopiridol; 0.0003162 µM): -0.0012
- increase in dead-cell fraction (Flavopiridol; 0.001 µM): 0.0042
- increase in dead-cell fraction (Flavopiridol; 0.003162 µM): 0.0019
- increase in dead-cell fraction (Flavopiridol; 0.01 µM): -0.0015
- increase in dead-cell fraction (Flavopiridol; 0.03162 µM): 0
- increase in dead-cell fraction (Flavopiridol; 0.1 µM): 0.0003
- increase in dead-cell fraction (Flavopiridol; 0.3162 µM): 0.0166
- increase in dead-cell fraction (Flavopiridol; 1 µM): 0.392
